In US12629359B2 (UNIVERSITA' DEGLI STUDI DI BRESCIA, priority 2020, dated 2026):
“Also recorded” adds a separate entry of the source.

Assays:
[1] = target: T1, alpha-synuclein/Synapsin III interaction (Homo sapiens, UniProt O14994+P37840); assay: FLIM-FRET (donor lifetime) of alpha-synuclein/Synapsin III interaction in SK-N-SH cells; format: cell-based; settings: 10 μM, 15 min after treatment
T1 construct: expressed in transfected cells; host or cells: neuronal-differentiated (retinoic acid) human SK-N-SH neuroblastoma cells, transient transfection with Lipofectamine 3000
T1 sequence (O14994 whole entry, one chain of several): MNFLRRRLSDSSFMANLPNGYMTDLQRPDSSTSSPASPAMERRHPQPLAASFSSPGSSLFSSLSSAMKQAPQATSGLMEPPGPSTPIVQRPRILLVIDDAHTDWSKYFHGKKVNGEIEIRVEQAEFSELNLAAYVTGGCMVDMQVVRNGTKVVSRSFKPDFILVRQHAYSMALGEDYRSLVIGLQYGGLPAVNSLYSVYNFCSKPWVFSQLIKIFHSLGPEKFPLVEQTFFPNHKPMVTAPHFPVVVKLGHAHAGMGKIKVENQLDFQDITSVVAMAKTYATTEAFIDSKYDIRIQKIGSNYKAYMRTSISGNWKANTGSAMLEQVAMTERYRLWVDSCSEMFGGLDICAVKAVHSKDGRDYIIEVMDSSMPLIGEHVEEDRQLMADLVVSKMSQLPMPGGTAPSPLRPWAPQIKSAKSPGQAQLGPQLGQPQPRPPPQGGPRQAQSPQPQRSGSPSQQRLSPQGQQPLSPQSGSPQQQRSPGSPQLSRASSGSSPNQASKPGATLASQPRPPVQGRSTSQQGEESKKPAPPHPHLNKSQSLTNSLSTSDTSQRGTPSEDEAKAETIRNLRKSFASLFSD
Method: The ability of the different compound to stimulate alpha-synuclein/Synapsin III interaction was evaluated by acceptor photobleaching FRET or FLIM in neuronal-like cells. In particular, we used neuronal-differentiated SK—N—SH neuroblastoma cells transiently transfected with red fluorescent protein (RFP)-tagged human wild type alpha-synuclein and green fluorescent protein (GFP)-tagged the human 63 kDa Synapsin III isoform.
The comparison of the lifetimes of the donor alone and in presence of the acceptor allows for precise and concentration-independent measurements of FRET efficiency. Fluorescence lifetime is defined as the average time that a fluorophore spends in the excited state after the absorption of light, prior to returning to the ground state by emitting a photon. Donor fluorescence lifetime is decreased when FRET occurs between the fluorophore pair. The comparison of the lifetimes of the donor alone and in presence of the acceptor allows for precise and concentration-independent measurements of FRET efficiency (Ishikawa-Ankerhold, H. C. et al. Molecules (Basel, Switzerland) 2012, 17, 4047-4132). Human neuroblastoma SK—N—SH cells were grown in complete medium comprising Dulbecco's modified Eagle's medium with 1000 mg glucose/l supplemented with 10% heat-inactivated fetal bovine serum, 100 μg/ml penicillin and 100 μg/ml streptomycin. Cells were maintained at 37° C. under a humidified atmosphere of 5% CO2 and […]. For FRET/FLIM studies, SK—N—SH cells were seeded onto poli-D-lysine-coat 1.7 cm2 glass chamber (15000 cells per well) and were maintained in differentiation medium for ten days by daily adding 10 μM retinoic acid to the medium. […] The time-domain FLIM was measured using a Time-Correlated Single Photon Counting (TCSPC) (PicoQuant) operated with SymPhoTime 64 software (PicoQuant). […] The images of GFP fluorescence generated in ZEN software were stored and processed with SymPhoTime 64. The mean fluorescence intensities within cell body were determined using the ROI tool in SymPhoTime 64. […] The fluorescence lifetime analysis was performed in the SymPhoTime 64 software within the cell body, automatically recognized by the software as ROI 0. Individual photon arrivals were detected using a SPAD detector and events were recorded by a PicoHarp 300 TCSPC module. […] The percentage FLIM-FRET efficiency was calculated as: 100×[1−(lifetime of donor with FRET/lifetime of donor without FRET)]. For lifetime analysis, fifteen cells were recorded for each condition, included GFP alone.

[2] = system: alpha-synuclein aggregation in primary mesencephalic neurons; assay: Alpha-synuclein aggregation in primary mouse midbrain neurons exposed to glucose deprivation; format: cell-based
[3] = system: SYN120 tg mice; assay: Open-field motility after chronic 6 weeks treatment in SYN120 tg mice; format: in vivo, mouse; settings: daily i.p. 5 mg/kg for 6 weeks, vs vehicle
Method: Two groups of 12 month-old SYN120 tg mice (N=4 animals per group) were subjected to daily i.p. administration of either vehicle or compound I-threo (5 mg/kg) for 6 weeks. All experiments were made in accordance with Directive 2010/63/EU of the European Parliament and of the Council of 22 Sep. 2010 on the protection of animals used. All experimental or surgical procedures conformed to the National Research Guide for the Care and Use of Laboratory Animals and were approved by the Animal Research Committees of the University of Brescia (Protocol Permit 719/2015-PR). At the end of treatment, the total distance travelled by the mice was recorded in the open field arena. […] Student's t-test. N=3 for each experimental group.

[4] = system: SYN120 tg mice; assay: Immunohistochemistry of nigrostriatal alpha-synuclein deposition and striatal dopaminergic fibers after chronic treatment of SYN120 tg mice; format: in vivo, mouse; settings: daily i.p. 5 mg/kg for 6 weeks
From the text: After the behavioral studies animals were sacrificed by transcardiac perfusion to collect their brains, which were used for immunohistochemical studies aimed at evaluating the efficacy of compound I-threo to reduce pathological alpha-synuclein deposition and neuroprotection in the nigrostriatal system.
First, we quantified aggregated alpha-synuclein pathological deposition by using an antibody specifically recognizing aggregated alpha-synuclein in the subtantia nigra and striatum of mice.
Then alpha-synuclein aggregation was evaluated also by using Thioflavin-S a dye recognizing fibrillary aggregates. […] Please note that dopaminergic neurons or fibers in the images were labelled in light blue.
Finally, we evaluated the neuroprotective effect of the chronic treatment with compound I-threo by quantifying the recovery of striatal dopaminergic fibers in the SYN120 tg mice treated with the compound when compared to the vehicle-treated animals.

## COC(=O)[C@H](c1ccc(C)cc1)C1CCCCN1.Cl (stereo partly drawn) [I-erythro]
[1]
  stimulation of alpha-synuclein/Synapsin III interaction (FLIM), in words: did not stimulate alpha-synuclein/Synapsin III interaction

## COC(=O)[C@@H](c1ccc(C)cc1)C1CCCCN1.Cl (stereo partly drawn) [I-threo, threo methyl 2-(piperidin-2-yl)-2-(p-tolyl)acetate hydrochloride]
[1]
  % decrease of tau amplitude (donor lifetime) vs MPH treated cells: -8.4%
  % decrease of tau amplitude (donor lifetime) vs untreated cells: -11.95%
  stimulation of alpha-synuclein/Synapsin III interaction (FLIM), in words: able to promote alpha-synuclein/synapsin III interaction
[2]; I-threo, VI-threo 50 and 100 nM, MPH 100 nM, hydrochloride
  alpha-synuclein inclusion formation (total immunofluorescence intensity and particle size): significantly reduce alpha-synuclein inclusion formation; also recorded: efficiently hinders alpha-synuclein aggregation
[2]; primary neurons
  efficiency higher than that of MPH: 50-70%
[3]
  total motility (total distance travelled) in open field: significant improvement in total motility
[4]
  Thioflavin-S signal in substantia nigra and striatum: marked reduction of thioflavin-S signal
[4]; vs vehicle
  aggregated alpha-synuclein in substantia nigra and striatum: statistically significant reduction of aggregated alpha-synuclein
  striatal TH-positive dopaminergic fibers: significant recovery of striatal TH-positive dopaminergic fibers
